Source: publication PMC10533412, “Phosphoantigens glue butyrophilin 3A1 and 2A1 to activate Vγ9Vδ2 T cells” (Nature, 2023)
Where “and” joins values, the source holds several entries; their conditions need not be identical. Identical values can stand only once.

Test system: BTN2A−/− MIA PaCa-2 (BTN2A1/BTN2A2 KO) cells
Assay: Cell killing assay with BTN2A−/− MIA PaCa-2 (BTN2A1/BTN2A2 KO) cells expressing BTN2A1/BTN2A2 variants
Details: for cell killing, Means, Fig. 6e: N 4; for cell killing, single replicate, Fig. 6e: listed as HMBPP
[1] = 0.1 μM, cells expressing 2A1 (full)
[2] = 0.1 μM, cells expressing 2A2 B30.2 W374R/M506T (with 2A1 other segments)
[3] = 0.1 μM, cells expressing 2A2 W374R/M506T (with 2A1 EC)
[4] = 0.1 μM, cells expressing 2A2 W374R/M506T (wtih 2A1 JM)
[5] = 0.1 μM, cells expressing 2A2 W374R/M506T
[6] = 1 μM, cells expressing 2A1 (full)
[7] = 1 μM, cells expressing 2A2 B30.2 W374R/M506T (with 2A1 other segments)
[8] = 1 μM, cells expressing 2A2 W374R/M506T (with 2A1 EC)
[9] = 1 μM, cells expressing 2A2 W374R/M506T (wtih 2A1 JM)
[10] = 1 μM, cells expressing 2A2 W374R/M506T
[11] = 10 μM, cells expressing 2A1 (full)
[12] = 10 μM, cells expressing 2A2 B30.2 W374R/M506T (with 2A1 other segments)
[13] = 10 μM, cells expressing 2A2 W374R/M506T (with 2A1 EC)
[14] = 10 μM, cells expressing 2A2 W374R/M506T (wtih 2A1 JM)
[15] = 10 μM, cells expressing 2A2 W374R/M506T
[16] = 2A1 WT, source data Ext. Fig. 3c
[17] = 2A1 ∆C, source data Ext. Fig. 3c
[18] = Ext. Fig. 6d, cells expressing 2A1 WT, three-parameter fit
[19] = Ext. Fig. 6d, cells expressing 2A2 G352Y354QR/M506T/W374R, three-parameter fit
[20] = Ext. Fig. 6d, cells expressing 2A2 G352Y354QR, three-parameter fit
[21] = Ext. Fig. 6d, cells expressing 2A2 M506T, three-parameter fit

Procedure: MIA PaCa-2 cells were infected with lentivirus bearing luciferase transgene. Luciferase-positive cells were plated at 5.0 × 10^3 cells per well in 384-well plates 1 day before transfection. All plasmids were transfected into BTN2A^−/− MIA PaCa-2 (BTN2A1/BTN2A2 KO) cells using Lipofectamine 2000 reagent. […] Stable-lite luciferase (Vazyme) was added to each well and the luciferase signal was immediately measured by using the PerkinElmer EnVision microplate reader.
Percentage of lysis was calculated using the following equation: percentage of specific lysis = (maximum luciferase − experimental luciferase)/maximum luciferase × 100.

Structure (SMILES): C/C(=C\COP(=O)(O)OP(=O)(O)O)CO [Compound 1, (E)-4-hydroxy-3-methylbut-2-en-1-yl diphosphate]
- cell killing, Means, Fig. 6e (0.1 μM, NT cells): 15.31
- cell killing, single replicate, Fig. 6e (0.1 μM, NT cells): 16.9534 and 12.1556 and 17.488 and 14.6256
- cell killing, Means, Fig. 6e [1]: 43.2
- cell killing, single replicate, Fig. 6e [1]: 41.0547 and 41.9242 and 44.3091 and 45.5217
- cell killing, Means, Fig. 6e [2]: 37.63
- cell killing, single replicate, Fig. 6e [2]: 30.7526 and 48.9339 and 41.228 and 29.5964
- cell killing, Means, Fig. 6e [3]: 10.65
- cell killing, single replicate, Fig. 6e [3]: 10.0494 and 11.5088 and 9.171 and 11.8833
- cell killing, Means, Fig. 6e [4]: 21.79
- cell killing, single replicate, Fig. 6e [4]: 18.9096 and 21.2355 and 31.0049 and 16.0148
- cell killing, Means, Fig. 6e [5]: 6.989
- cell killing, single replicate, Fig. 6e [5]: 8.189 and 6.668 and 2.002 and 11.0964
- cell killing, Means, Fig. 6e (1 μM, NT cells): 19.83
- cell killing, single replicate, Fig. 6e (1 μM, NT cells): 17.72 and 22.5709 and 17.5879 and 21.4385
- cell killing, Means, Fig. 6e [6]: 47.49
- cell killing, single replicate, Fig. 6e [6]: 44.8999 and 44.0198 and 51.2118 and 49.8148
- cell killing, Means, Fig. 6e [7]: 47.88
- cell killing, single replicate, Fig. 6e [7]: 42.711 and 50.2729 and 52.3554 and 46.1815
- cell killing, Means, Fig. 6e [8]: 18.17
- cell killing, single replicate, Fig. 6e [8]: 13.1292 and 15.284 and 20.3978 and 23.864
- cell killing, Means, Fig. 6e [9]: 29.03
- cell killing, single replicate, Fig. 6e [9]: 27.7855 and 29.0017 and 26.4668 and 32.8608
- cell killing, Means, Fig. 6e [10]: 15.67
- cell killing, single replicate, Fig. 6e [10]: 11.4295 and 17.9078 and 14.2342 and 19.1099
- cell killing, Means, Fig. 6e (10 μM, NT cells): 24.11
- cell killing, single replicate, Fig. 6e (10 μM, NT cells): 29.5378 and 18.9356 and 23.5884 and 24.3846
- cell killing, Means, Fig. 6e [11]: 46.91
- cell killing, single replicate, Fig. 6e [11]: 43.2704 and 47.0695 and 47.7293 and 49.5621
- cell killing, Means, Fig. 6e [12]: 46.58
- cell killing, single replicate, Fig. 6e [12]: 39.3517 and 47.3098 and 45.3387 and 54.323
- cell killing, Means, Fig. 6e [13]: 29.48
- cell killing, single replicate, Fig. 6e [13]: 34.2513 and 25.8478 and 33.2665 and 24.5352
- cell killing, Means, Fig. 6e [14]: 29.83
- cell killing, single replicate, Fig. 6e [14]: 29.1476 and 34.1243 and 24.0842 and 31.9573
- cell killing, Means, Fig. 6e [15]: 28.16
- cell killing, single replicate, Fig. 6e [15]: 27.8321 and 21.0649 and 28.437 and 35.311
- Bottom, best-fit value, log(agonist) vs. response (three parameters) [16]: 30.67
- LogEC50, best-fit value [16]: -7.891
- Span (best-fit value) [16]: 32.29
- Top, best-fit value, log(agonist) vs. response (three parameters) [16]: 62.96
- Bottom, best-fit value, log(agonist) vs. response (three parameters) [17]: 18.53
- LogEC50, best-fit value [17]: -4.358
- Span (best-fit value) [17]: 32.38
- Top, best-fit value, log(agonist) vs. response (three parameters) [17]: 50.91
- Bottom (best-fit value) [18]: 37.79
- Span (best-fit value) [18]: 24.09
- Top (best-fit value) [18]: 61.87
- Bottom (best-fit value) [19]: 32.14
- Span (best-fit value) [19]: 22.27
- Top (best-fit value) [19]: 54.4
- Bottom (best-fit value) [20]: 19.82
- Span (best-fit value) [20]: 7.278
- Top (best-fit value) [20]: 27.1
- Bottom (best-fit value) [21]: 17.84
- Span (best-fit value) [21]: 32.36
- Top (best-fit value) [21]: 50.2
- Bottom (best-fit value) (Ext. Fig. 6d, cells expressing 2A2 W374R/M506T, three-parameter fit): 21.03
